According to patent US20230286983A1 (4E Therapeutics, Inc., priority 2020, published 2023):
Where “and” joins values, the source holds several entries; their conditions need not be identical. Identical values can stand only once. Like-named read-outs stand apart in the source and are kept apart here.

Columns and labels:
[1] = target: Cdc2-like kinase 4 (CLK4) (Homo sapiens, UniProt Q9HAZ1); assay: Off-target kinase screen CLK4; type: biochemical; conditions: 1 μM test compound
Excerpt: These kinases were chosen because they are the only known off-target hit kinases for eFT508. These assays were done using recombinant human kinases (CLK4, DRAK1 and PKG2) in a substrate phosphorylation assay. % activity remaining after MNK inhibitor treatment is indicated in Table 12.

[2] = test system: eIF4E phosphorylation at Serine 209 in Karpas 299; assay: eIF4E phosphorylation in Karpas 299 cells (sandwich ELISA); type: cell-based; conditions: Homo sapiens, read-out: Karpas 299 cell IC50
Procedure: The ability of MNK inhibitors described herein to inhibit eIF4E phosphorylation at Serine 209 in Karpas 299, Human Non-Hodgkin's Ki-positive Large Cell Lymphoma cell line was tested by sandwich enzyme linked immune-absorbance assay.

[3] = Pharmacokinetic study, 4ET-03-009 at 10 mg/kg oral; type: in vivo, CD-1 male mice; conditions: for AUCinf/D / Cmax/D: dose normalized; for concentration at 24 hours: read-out: Clast
Procedure: Compound 4ET-03-009 was dissolved in a 10% dimethylacetamide (DMA)/[…] solvent. CD-1 male mice were orally dosed with 10 mg/kg of compound 4ET-03-009 in 20 mL/kg of liquid. Plasma was collected at indicated timepoints and plasma concentration of compound 4ET-03-009 was measured using liquid chromatography-mass spectrometry/mass spectrometry (LC-MS/MS). Results are presented in FIG. 1 and Tables 3, 4, and 5.

IL-6 evoked grimace = IL-6 evoked grimace test; type: in vivo, ICR mice
Procedure: Institute for Cancer Research (ICR) mice were used in these experiments. Mice were bred in house at University of Texas at Dallas and used at between 12 and 24 weeks of age. Mice were habituated to plexiglass boxes of approximately 4×6 inches in size with openable tops. Habituation took place over 2 days with animals exposed to the boxes for at least 30 min. A blinded observer scored baseline grimacing using the method previously described by Mogil and colleagues (Langford, et al., Coding of facial expressions of pain in the laboratory mouse. Nat Methods (2010) 7:447-449.). On test day, mice were given test compounds 1 hr prior to injection of interleukin 6 (human recombinant IL-6, R&D Systems) which was given at a dose of 0.1 ng in saline via an intraplantar injection as described previously (Moy et al. The MNK-eIF4E Signaling Axis Contributes to Injury-Induced Nociceptive Plasticity and the Development of Chronic Pain. J Neurosci (2017) 37:7481-7499.). Test compounds were given orally (PO) via a flexible oral gavage canula built for mice. 4ET-01-021 (10.0, 3.0, and 1.0 mg/kg) and 4ET-03-052B (10.0 mg/kg) are efficacious in the IL-6 evoked grimace test in mice. FIG. 5 depicts a comparison of effect size in the IL-6 evoked grimace test. Effect sizes were calculated per mouse by subtracting the baseline grimace score from the sum of the grimace scores for 1 and 3 hr time points. […] FIG. 6 is a graph showing the effect size in the IL-6 evoked grimace test vs. dose of 4ET-01-021.

[4] = male, CD-1, mouse, plasma, po, 10 mg/kg, Mean (n = 3)
[5] = male, CD-1, mouse, plasma, po, 10 mg/kg, individual animals

Sequence of Cdc2-like kinase 4 (CLK4) (Q9HAZ1 whole entry): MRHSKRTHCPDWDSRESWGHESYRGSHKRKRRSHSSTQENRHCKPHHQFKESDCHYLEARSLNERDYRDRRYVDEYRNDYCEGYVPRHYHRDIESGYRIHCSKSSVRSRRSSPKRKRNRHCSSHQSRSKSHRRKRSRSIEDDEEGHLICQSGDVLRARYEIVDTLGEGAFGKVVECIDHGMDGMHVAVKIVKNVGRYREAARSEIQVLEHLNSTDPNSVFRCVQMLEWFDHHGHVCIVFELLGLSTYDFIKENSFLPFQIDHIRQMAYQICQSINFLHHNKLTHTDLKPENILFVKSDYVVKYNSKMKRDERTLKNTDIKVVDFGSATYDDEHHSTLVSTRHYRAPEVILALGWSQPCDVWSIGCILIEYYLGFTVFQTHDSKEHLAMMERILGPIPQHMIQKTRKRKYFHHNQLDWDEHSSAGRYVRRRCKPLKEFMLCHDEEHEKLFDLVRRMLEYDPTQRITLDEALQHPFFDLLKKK

SMILES: Cc1cc(Nc2cc(NC(=O)C3CC3)ncn2)c(=O)n2c1C(=O)NC21CCOCC1 [Compound 4ET-03-009, N-(6-((8-Methyl-1,5-dioxo-1,2′,3′,5,5′,6′-hexahydro-2H-spiro[imidazo[1,5-a]pyridine-3,4′-pyran]-6-yl)amino)pyrimidin-4-yl)cyclopropanecarboxamide]
- remaining activity at 1 µM [1]: 54%
- IC50 [2]: 6.2 nM
- abnormal clinical symptoms during the study [3]: No abnormal clinical symptoms were observed
- Plasma Conc. (per mouse n = 3) ([3]; 0.083 hours): 85.3 ng/mL and 106 ng/mL
- Plasma Conc. (per mouse n = 3) ([3]; 0.25 hours): 147 ng/mL and 161 ng/mL
- Plasma Conc. (per mouse n = 3) ([3]; 0.5 hours): 270 ng/mL and 205 ng/mL
- Plasma Conc. (per mouse n = 3) ([3]; 1 hours): 318 ng/mL and 233 ng/mL
- Plasma Conc. (per mouse n = 3) ([3]; 2 hours): 271 ng/mL and 216 ng/mL
- Plasma Conc. (per mouse n = 3) ([3]; 4 hours): 169 ng/mL and 124 ng/mL
- Plasma Conc. (per mouse n = 3) ([3]; 6 hours): 80.2 ng/mL and 70.6 ng/mL
- Plasma Conc. (per mouse n = 3) ([3]; 8 hours): 62.9 ng/mL and 53.9 ng/mL
- Plasma Conc. (per mouse n = 3) ([3]; 24 hours): 2.28 ng/mL and 1.84 ng/mL
- Tlast ([3]; Mean (n = 3)): 24.0 h
- t1/2 ([3]; Mean (n = 3)): 3.46 h
- AUCinf/D ([3]; Mean (n = 3)): 162 kg·h/kL
- Cmax/D ([3]; Mean (n = 3)): 29.4 kg/kL
- AUC0-8 hours ([3]; individual animals): 1349 ng·h/mL and 1066 ng·h/mL
- AUCinf ([3]; individual animals): 1882 ng·h/mL and 1520 ng·h/mL
- AUClast ([3]; individual animals): 1870 ng·h/mL and 1511 ng·h/mL
- Clast ([3]; individual animals): 2.28 ng/mL and 1.84 ng/mL
- Cmax ([3]; individual animals): 318 ng/mL and 233 ng/mL
- MRTinf ([3]; individual animals): 4.64 h and 4.74 h
- Tlast ([3]; individual animals): 24.0 h
- t1/2 ([3]; individual animals): 3.44 h and 3.37 h
- AUCinf/D ([3]; individual animals): 147 kg·h/kL and 188 kg·h/kL and 152 kg·h/kL
- Cmax/D ([3]; individual animals): 33.1 kg/kL and 31.8 kg/kL and 23.3 kg/kL
- Tmax ([3]; male, CD-1, mouse, plasma, individual animals): 1 h
- concentration at 0.083 h ([3]; male, CD-1, mouse, plasma, oral, 10 mg/kg, 0.083 hours, mean n = 3, read-out: Plasma Conc. Mean): 90.4 ng/mL
- concentration at 0.083 h ([3]; male, CD-1, mouse, plasma, oral, 10 mg/kg, 0.083 hours, read-out: Plasma Conc. (per mouse n = 3)): 79.8 ng/mL
- concentration at 0.25 h ([3]; male, CD-1, mouse, plasma, oral, 10 mg/kg, 0.25 hours, mean n = 3, read-out: Plasma Conc. Mean): 138 ng/mL
- concentration at 0.25 h ([3]; male, CD-1, mouse, plasma, oral, 10 mg/kg, 0.25 hours, read-out: Plasma Conc. (per mouse n = 3)): 106 ng/mL
- concentration at 0.5 hours ([3]; male, CD-1, mouse, plasma, oral, 10 mg/kg, 0.5 hours, mean n = 3, read-out: Plasma Conc. Mean): 226 ng/mL
- concentration at 0.5 h ([3]; male, CD-1, mouse, plasma, oral, 10 mg/kg, 0.5 hours, read-out: Plasma Conc. (per mouse n = 3)): 202 ng/mL
- concentration at 1 h ([3]; male, CD-1, mouse, plasma, oral, 10 mg/kg, 1 hours, mean n = 3, read-out: Plasma Conc. Mean): 294 ng/mL
- concentration at 1 h ([3]; male, CD-1, mouse, plasma, oral, 10 mg/kg, 1 hours, read-out: Plasma Conc. (per mouse n = 3)): 331 ng/mL
- concentration at 2 h ([3]; male, CD-1, mouse, plasma, oral, 10 mg/kg, 2 hours, mean n = 3, read-out: Plasma Conc. Mean): 255 ng/mL
- concentration at 2 h ([3]; male, CD-1, mouse, plasma, oral, 10 mg/kg, 2 hours, read-out: Plasma Conc. (per mouse n = 3)): 227 ng/mL
- concentration at 4 h ([3]; male, CD-1, mouse, plasma, oral, 10 mg/kg, 4 hours, mean n = 3, read-out: Plasma Conc. Mean): 132 ng/mL
- concentration at 4 h ([3]; male, CD-1, mouse, plasma, oral, 10 mg/kg, 4 hours, read-out: Plasma Conc. (per mouse n = 3)): 104 ng/mL
- concentration at 6 h ([3]; male, CD-1, mouse, plasma, oral, 10 mg/kg, 6 hours, mean n = 3, read-out: Plasma Conc. Mean): 66.7 ng/mL
- concentration at 6 h ([3]; male, CD-1, mouse, plasma, oral, 10 mg/kg, 6 hours, read-out: Plasma Conc. (per mouse n = 3)): 49.3 ng/mL
- concentration at 8 h ([3]; male, CD-1, mouse, plasma, oral, 10 mg/kg, 8 hours, mean n = 3, read-out: Plasma Conc. Mean): 52.5 ng/mL
- concentration at 8 h ([3]; male, CD-1, mouse, plasma, oral, 10 mg/kg, 8 hours, read-out: Plasma Conc. (per mouse n = 3)): 40.6 ng/mL
- concentration at 24 h ([3]; male, CD-1, mouse, plasma, oral, 10 mg/kg, 24 hours, mean n = 3, read-out: Plasma Conc. Mean): 1.92 ng/mL
- concentration at 24 h ([3]; male, CD-1, mouse, plasma, oral, 10 mg/kg, 24 hours, read-out: Plasma Conc. (per mouse n = 3)): 1.64 ng/mL
- concentration at 24 hours ([3]; male, CD-1, mouse, plasma, oral, 10 mg/kg, Mean (n = 3)): 1.92 ng/mL
- concentration at 24 hours ([3]; male, CD-1, mouse, plasma, oral, 10 mg/kg, individual animals): 1.64 ng/mL
- AUC(0-inf) [3, 4]: 1620 ng·h/mL
- MRT inf [3, 4]: 4.5 h
- half-life [3, 4]: 3.5 h
- AUC(0-t) ([3]; male, CD-1, mouse, plasma, po, 10 mg/kg, Mean (n = 3), read-out: AUC0-8 hours): 1180 ng·h/mL
- AUC(0-t) ([3]; male, CD-1, mouse, plasma, po, 10 mg/kg, Mean (n = 3), read-out: AUClast): 1610 ng·h/mL
- Cmax ([3]; male, CD-1, mouse, plasma, po, 10 mg/kg, Mean (n = 3), read-out: Cmax): 294 ng/mL
- AUC(0-inf) ([3]; male, CD-1, mouse, plasma, po, 10 mg/kg, for the study): 1620 ng·h/mL
- Cmax ([3]; male, CD-1, mouse, plasma, po, 10 mg/kg, for the study, read-out: Cmax): 716 nM
- AUC(0-inf) [3, 5]: 1460 ng·h/mL
- MRT inf [3, 5]: 4.12 h
- half-life [3, 5]: 3.58 h
- AUC(0-t) ([3]; male, CD-1, mouse, plasma, po, 10 mg/kg, individual animals, read-out: AUC0-8 hours): 1120 ng·h/mL
- AUC(0-t) ([3]; male, CD-1, mouse, plasma, po, 10 mg/kg, individual animals, read-out: AUClast): 1460 ng·h/mL
- Cmax ([3]; male, CD-1, mouse, plasma, po, 10 mg/kg, individual animals, read-out: Cmax): 331 ng/mL

SMILES: CCC1=CC2(CCC1)NC(=O)c1c(C)cc(Nc3cc(N)ncn3)c(=O)n12 (stereo not shown) [Compound 4ET-01-021, 6′-((6-Aminopyrimidin-4-yl)amino)-3-ethyl-8′-methyl-2′H-spiro[cyclohexane-1,3′-imidazo[1,5-a]pyridin]-2-ene-1′,5′-dione]
- ED50 (IL-6 evoked grimace; Mus musculus, PO, effect size vs. dose): 0.4 mg/kg
- efficacy in the IL-6 evoked grimace test (IL-6 evoked grimace; PO 1 hr prior to IL-6, 4ET-01-021 10.0, 3.0 and 1.0 mg/kg, 4ET-03-052B 10.0 mg/kg): efficacious
- effect size in the IL-6 evoked grimace test (IL-6 evoked grimace; sum of grimace scores at 1 and 3 hr minus baseline): statistically-significant effect sizes
